Reference: US8975232B2, “Macrocyclic kinase inhibitors and uses thereof” (President and Fellows of Harvard College, priority 2010, dated 2015)
Where two headings read alike, the source gives them in different places.

Key:
[1] = molecular target: T1, Src kinase domain (chicken c-Src residues 251-533) (Gallus gallus, UniProt P00523); experiment: Continuous spectrophotometric kinase activity assay; format: biochemical; details: Src kinase domain; 5 μM ATP, 100 μM Src optimal peptide
T1 construct: chicken c-Src (residues 251-533 and residues 83-533); made in house

Src kinase domain = molecular target: T2, Src kinase domain (Gallus gallus, UniProt P00523); experiment: Fluorescence anisotropy binding assay; parameters: species or system chicken; details: fluorescein-labeled macrocycle, read-out: dissociation constant (KD)
T2 construct: chicken c-Src (residues 251-533 and residues 83-533); made in house
Description: The change in fluorescence anisotropy of fluorescein-labeled MC1, MC4 and MC9 at 518 nm upon excitation at 492 nm was monitored with a HORIBA Jobin Yvon FluoroMax-4 (Edison, N.J.) spectrofluorimeter. Kinase was titrated to 0.5 μM of the fluorescently labeled macrocycle in 100 mM Tris pH 8.0, 10 mM MgCl2 at 25° C. After equilibration, the increase in the fluorescence anisotropy of the fluorescently labeled ligand was recorded and fitted against a quadratic binding equation in Kaleidagraph (Synergy Software, Reading Pa.) to yield the dissociation constant KD.
To clarify the inhibitory mechanism of the compounds further, the binding affinity of fluorescently labeled MC1, MC4, and MC9 to Src kinase domain was determined in a fluorescence anisotropy assay (FIG. 21).

[2] = molecular target: T3, Src83-533 (chicken c-Src 83-533) (Gallus gallus, UniProt P00523); experiment: Kinase activity assay with longer Src construct including SH3 and SH2 domains; format: biochemical; details: Src wild-type construct containing SH3 and SH2 domains
T3 construct: the regulatory SH3 and SH2 domains (chicken c-Src 83-533); made in house
Text: (§1) Kinase domain constructs of human c-Abl (residues 229-512), chicken c-Src (residues 251-533 and residues 83-533), murine Lck (residues 227-509), and human Hck (residues 166-445) were expressed as previously described (Seeliger, Young et al. 2005; Seeliger, Nagar et al. 2007; the entire contents of each of which are incorporated by reference herein). Mutations were introduced into chicken c-Src (residues 251-533) (T338I, C277Q, L297M) by site-directed mutagenesis and verified by DNA sequencing.
In vitro kinase inhibition assays were performed using either a continuous spectrophotometric assay or a FRET-based endpoint assay. […]
To address this discrepancy, the two major differences between the fluorescent peptide-based Z′-LYTE assay and the continuous spectrophotometric assay employed here were investigated: the kinase construct used (full-length kinase in the Z-LYTE assay vs. kinase domain in the current study) and the peptide identity and concentration (5 μM fluorescent Abl-optimal substrate peptide in the previous study vs. 100 μM Src-optimal substrate peptide in the current study). […] The IC50 values determined for MC1.2 and MC4.1 were close to the concentration of the kinase used in the assay and therefore these values only represent an upper estimate of the real potency of these compounds.

Src Thr338Ile = experiment: Inhibition of Src gatekeeper mutant; format: biochemical, chicken
Text: as §1
For the FRET-based endpoint assay, kinase assays were performed using Invitrogen's Z′-LYTE kinase assay using the Tyr 02 substrate peptide (based upon the optimal Abl substrate peptide […]) according to the manufacturer's instructions. Assays were performed at near KM ATP concentrations for full-length c-Src and full-length c-Src T338I-50 μM and 7 μM, respectively.

Src kinase = Src kinase (Homo sapiens, UniProt P12931); experiment: Z'-LYTE kinase assay (Invitrogen), Src; format: biochemical; parameters: full-length kinase in the Z-LYTE assay vs. kinase domain in the current study; purchased Millipore; details: Z'-LYTE; ATP near KM
Src kinase, sequence (P12931 whole entry, the tested form may be a part): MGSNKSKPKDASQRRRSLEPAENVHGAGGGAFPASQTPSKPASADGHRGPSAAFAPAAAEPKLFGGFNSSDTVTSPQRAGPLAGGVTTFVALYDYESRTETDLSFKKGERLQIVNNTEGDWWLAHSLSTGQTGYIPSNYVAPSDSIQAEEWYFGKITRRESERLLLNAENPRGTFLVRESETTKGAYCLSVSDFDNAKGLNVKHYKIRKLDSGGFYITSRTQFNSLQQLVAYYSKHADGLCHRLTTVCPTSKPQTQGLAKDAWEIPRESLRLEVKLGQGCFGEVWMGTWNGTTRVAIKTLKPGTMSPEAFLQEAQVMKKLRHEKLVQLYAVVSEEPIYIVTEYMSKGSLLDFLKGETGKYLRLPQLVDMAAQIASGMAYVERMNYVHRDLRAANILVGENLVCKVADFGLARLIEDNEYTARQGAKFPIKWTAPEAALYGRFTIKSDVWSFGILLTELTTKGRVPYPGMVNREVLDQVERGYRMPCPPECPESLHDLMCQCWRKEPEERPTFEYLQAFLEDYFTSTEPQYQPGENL
Description: Nine macrocycles enriched in the Src selection (FIG. 5) and synthesized as described above were assayed in vitro for the ability to inhibit Src kinase activity. Kinase activity was assayed in the presence of varying concentrations of macrocycle using the FRET-based Z′-LYTE assay (Invitrogen).
Src IC50 determinations and single-point inhibition measurements were performed using Invitrogen's Z′-LYTE Tyr 02 assay kit according to the manufacturer's protocols. All kinase assays were performed at ATP concentrations near KM,ATP values, except where noted otherwise. Active human Src kinase was obtained from Millipore. For kinome profiling and IC50 determinations against non-Src kinases, compounds were submitted to Invitrogen's SelectScreen Kinase Profiling Service.

Work on `NC(=O)[C@@H]1CCNC(=O)[C@H](CCCNC(=O)c2cnccn2)NC(=O)[C@H](CC2CCCCC2)NC(=O)[C@H](C/C=C/c2ccccc2)NC(=O)/C=C\C(=O)N1` [cis-A11-B8-C10-D7] yielded an IC50 [1] of 69 µM, a Kd (Src kinase domain; 250 μM AMP-PNP) of 12.6 µM and a Kd (Src kinase domain; no competitor) of 3.6 µM. The IC50 [2] was 0.39 µM, the “lower potency against gatekeeper mutant than against Src wild-type” value (Src Thr338Ile) was “about 3 fold” and the IC50 (Src Thr338Ile; Src Thr338Ile containing SH3 and SH2 domains) was 1 µM. It also gave an IC50 (Src kinase) of 25 µM.
